Results from US8192962B2, “Processes for detecting toxic substances” (Daikin Industries, Ltd., priority 2001, dated 2012).

Test system: DNA repair protein genes
Test: DNA chip mRNA expression in yeast, DNA repair protein genes (Table 3)
Format: cell-based, Saccharomyces cerevisiae S288C
Conditions: incubated two hours, concentrations as in the 1st table
How it was run: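 S. cerevisiae S288C grown at 25° C in YPD were exposed in log phase for two hours to one toxic chemical at a growth-inhibiting, non-lethal concentration; untreated cells served as control. Poly(A) mRNA was reverse-transcribed with Cy3/Cy5-dUTP and hybridized to a whole-genome yeast DNA chip at 65° C for over 12 hours; values are fluorescence ratios versus untreated.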

In the case of [Cl][Cd][Cl] [(2), CdCl2], the “The level of expressed mRNA in the presence of chemical substance/The level of expressed mRNA in the absence of chemical substance” value (yeast gene YAL015C) is reported as 1.1, the “The level of expressed mRNA in the presence of chemical substance/The level of expressed mRNA in the absence of chemical substance” value (yeast gene YAR007C) is reported as 1.9 and the “The level of expressed mRNA in the presence of chemical substance/The level of expressed mRNA in the absence of chemical substance” value (yeast gene YBL019W) is reported as 9.1. For the same compound, the “The level of expressed mRNA in the presence of chemical substance/The level of expressed mRNA in the absence of chemical substance” value (yeast gene YBR073W) was 1.0, the “The level of expressed mRNA in the presence of chemical substance/The level of expressed mRNA in the absence of chemical substance” value (yeast gene YBR272C) was 1.8 and the “The level of expressed mRNA in the presence of chemical substance/The level of expressed mRNA in the absence of chemical substance” value (yeast gene YCR014C) was 1.0. For the same compound, the “The level of expressed mRNA in the presence of chemical substance/The level of expressed mRNA in the absence of chemical substance” value (yeast gene YDL017W) was 2.3, the “The level of expressed mRNA in the presence of chemical substance/The level of expressed mRNA in the absence of chemical substance” value (yeast gene YDL059C) was 5.1 and the “The level of expressed mRNA in the presence of chemical substance/The level of expressed mRNA in the absence of chemical substance” value (yeast gene YDL200C) was 2.0. For the same compound, the “The level of expressed mRNA in the presence of chemical substance/The level of expressed mRNA in the absence of chemical substance” value (yeast gene YDR054C) was 1.0, the “The level of expressed mRNA in the presence of chemical substance/The level of expressed mRNA in the absence of chemical substance” value (yeast gene YDR369C) was 1.1 and the “The level of expressed mRNA in the presence of chemical substance/The level of expressed mRNA in the absence of chemical substance” value (yeast gene YEL019C) was 1.6. For the same compound, the “The level of expressed mRNA in the presence of chemical substance/The level of expressed mRNA in the absence of chemical substance” value (yeast gene YEL037C) was 2.0, the “The level of expressed mRNA in the presence of chemical substance/The level of expressed mRNA in the absence of chemical substance” value (yeast gene YER162C) was 1.2 and the “The level of expressed mRNA in the presence of chemical substance/The level of expressed mRNA in the absence of chemical substance” value (yeast gene YFL014W) was 5.1. The “The level of expressed mRNA in the presence of chemical substance/The level of expressed mRNA in the absence of chemical substance” value (yeast gene YGL058W) was 1.1, the “The level of expressed mRNA in the presence of chemical substance/The level of expressed mRNA in the absence of chemical substance” value (yeast gene YGL091C) was 1.8 and the “The level of expressed mRNA in the presence of chemical substance/The level of expressed mRNA in the absence of chemical substance” value (yeast gene YGL127C) was 1.9. The “The level of expressed mRNA in the presence of chemical substance/The level of expressed mRNA in the absence of chemical substance” value (yeast gene YGL163C) was 0.8, the “The level of expressed mRNA in the presence of chemical substance/The level of expressed mRNA in the absence of chemical substance” value (yeast gene YGL249W) was 0.8 and the “The level of expressed mRNA in the presence of chemical substance/The level of expressed mRNA in the absence of chemical substance” value (yeast gene YGR180C) was 1.1. For the same compound, the “The level of expressed mRNA in the presence of chemical substance/The level of expressed mRNA in the absence of chemical substance” value (yeast gene YGR231C) was 1.2, the “The level of expressed mRNA in the presence of chemical substance/The level of expressed mRNA in the absence of chemical substance” value (yeast gene YGR258C) was 0.9 and the “The level of expressed mRNA in the presence of chemical substance/The level of expressed mRNA in the absence of chemical substance” value (yeast gene YHR164C) was 1.3. For the same compound, the “The level of expressed mRNA in the presence of chemical substance/The level of expressed mRNA in the absence of chemical substance” value (yeast gene YIL036W) was 1.3, the “The level of expressed mRNA in the presence of chemical substance/The level of expressed mRNA in the absence of chemical substance” value (yeast gene YIL072W) was 3.1 and the “The level of expressed mRNA in the presence of chemical substance/The level of expressed mRNA in the absence of chemical substance” value (yeast gene YIL143C) was 0.8. The “The level of expressed mRNA in the presence of chemical substance/The level of expressed mRNA in the absence of chemical substance” value (yeast gene YIL153W) was 1.4, the “The level of expressed mRNA in the presence of chemical substance/The level of expressed mRNA in the absence of chemical substance” value (yeast gene YIR002C) was 1.1 and the “The level of expressed mRNA in the presence of chemical substance/The level of expressed mRNA in the absence of chemical substance” value (yeast gene YJL026W) was 2.4. For the same compound, the “The level of expressed mRNA in the presence of chemical substance/The level of expressed mRNA in the absence of chemical substance” value (yeast gene YJR046W) was 1.2, the “The level of expressed mRNA in the presence of chemical substance/The level of expressed mRNA in the absence of chemical substance” value (yeast gene YJR052W) was 1.0 and the “The level of expressed mRNA in the presence of chemical substance/The level of expressed mRNA in the absence of chemical substance” value (yeast gene YKL145W) was 1.4. The “The level of expressed mRNA in the presence of chemical substance/The level of expressed mRNA in the absence of chemical substance” value (yeast gene YLR103C) was 1.5, the “The level of expressed mRNA in the presence of chemical substance/The level of expressed mRNA in the absence of chemical substance” value (yeast gene YLR233C) was 0.9 and the “The level of expressed mRNA in the presence of chemical substance/The level of expressed mRNA in the absence of chemical substance” value (yeast gene YLR288C) was 0.8. The “The level of expressed mRNA in the presence of chemical substance/The level of expressed mRNA in the absence of chemical substance” value (yeast gene YML032C) was 0.9, the “The level of expressed mRNA in the presence of chemical substance/The level of expressed mRNA in the absence of chemical substance” value (yeast gene YML058W) was 1.2 and the “The level of expressed mRNA in the presence of chemical substance/The level of expressed mRNA in the absence of chemical substance” value (yeast gene YMR035W) was 1.7. For the same compound, the “The level of expressed mRNA in the presence of chemical substance/The level of expressed mRNA in the absence of chemical substance” value (yeast gene YMR072W) was 1.0, the “The level of expressed mRNA in the presence of chemical substance/The level of expressed mRNA in the absence of chemical substance” value (yeast gene YMR096W) was 1.7 and the “The level of expressed mRNA in the presence of chemical substance/The level of expressed mRNA in the absence of chemical substance” value (yeast gene YMR284W) was 1.0. For the same compound, the “The level of expressed mRNA in the presence of chemical substance/The level of expressed mRNA in the absence of chemical substance” value (yeast gene YNL213C) was 11.6, the “The level of expressed mRNA in the presence of chemical substance/The level of expressed mRNA in the absence of chemical substance” value (yeast gene YNL250W) was 2.2 and the “The level of expressed mRNA in the presence of chemical substance/The level of expressed mRNA in the absence of chemical substance” value (yeast gene YNL261W) was 1.3. For the same compound, the “The level of expressed mRNA in the presence of chemical substance/The level of expressed mRNA in the absence of chemical substance” value (yeast gene YNL312W) was 1.0, the “The level of expressed mRNA in the presence of chemical substance/The level of expressed mRNA in the absence of chemical substance” value (yeast gene YOL043C) was 0.9 and the “The level of expressed mRNA in the presence of chemical substance/The level of expressed mRNA in the absence of chemical substance” value (yeast gene YOR005C) was 1.8. The “The level of expressed mRNA in the presence of chemical substance/The level of expressed mRNA in the absence of chemical substance” value (yeast gene YOR386W) was 0.8, the “The level of expressed mRNA in the presence of chemical substance/The level of expressed mRNA in the absence of chemical substance” value (yeast gene YPL022W) was 0.8 and the “The level of expressed mRNA in the presence of chemical substance/The level of expressed mRNA in the absence of chemical substance” value (yeast gene YPL164C) was 0.7. The “The level of expressed mRNA in the presence of chemical substance/The level of expressed mRNA in the absence of chemical substance” value (yeast gene YPL194W) was 1.4 and the “The level of expressed mRNA in the presence of chemical substance/The level of expressed mRNA in the absence of chemical substance” value (yeast gene YPR025C) was 0.8.
